Results on 12 compounds are retold here after PMC5754923 (Journal of medicinal chemistry, 2017).

The subject of data set [1] is K562 cells. Conditions: statement of the discussion, not tested here; ref not given; cited from earlier work.
Data set [2] concerns Vγ9Vδ2 T cells. Description: Expansion of Vγ9Vδ2 T cells from peripheral blood. In kind it is cell-based, human. Conditions: for Stimulation of Vγ9Vδ2 T cell proliferation: 0.1 µM, CD3+/γδ TCR+ population; for Fold difference from salt: prodrug versus unprotected salt.
A further data set relates to T cells. Briefly: Toxicity towards the T cells in the expansion assay. In kind it is cell-based, human.
The target of data set [3] is T1, full intracellular domain of BTN3A1 (Homo sapiens, UniProt O00481). Briefly: Isothermal titration calorimetry. In kind it is binding. Conditions: for Binding to BTN3A1: purified BTN3A1, direct titration.
T1 sequence (O00481 272-513 limits assumed): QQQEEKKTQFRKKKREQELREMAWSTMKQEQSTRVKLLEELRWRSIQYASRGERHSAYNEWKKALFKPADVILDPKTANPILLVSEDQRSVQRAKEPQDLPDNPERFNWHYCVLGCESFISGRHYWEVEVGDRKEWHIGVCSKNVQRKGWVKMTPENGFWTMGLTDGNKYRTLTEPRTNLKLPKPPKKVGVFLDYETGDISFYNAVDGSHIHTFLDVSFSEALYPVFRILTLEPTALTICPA
For data set [4], the system named is K562 cells. Description: K562 proliferation. In kind it is cell-based, human.
Data set [5] addresses T1, full intracellular domain of BTN3A1. As to conditions: known Kd, ref not given; cited from earlier work.
The subject of data set [6] is K562 cells. Briefly: Vγ9Vδ2 T cell mediated lysis of K562 cells. As to conditions: for Fold difference from salt, lysis: 2 hour treatment/4 hour co-culture.
The test system of data set [7] is Vγ9Vδ2 T cells. Conditions: expansion from peripheral blood; ref [10]; cited from earlier work.
Data set [8] is described as follows: HPLC and HPLC-MS analysis in aqueous acetonitrile. In kind it is physicochemical.
[9] abbreviates: presence of 10-fold higher compound 8.
Where [10] appears, read: presence of 100-fold molar excess of compound 8.

Structures are written as SMILES. “Also recorded” adds a separate entry of the source. Read-outs that look alike come from different tables or passages of the source. A value given as a limit tells only on which side of the number the result lay.

On to `C=C(C)CCOP(=O)(O)OP(=O)(O)O` [IPP, isopentenyl diphosphate], for which the “Direct toxicity” value with K562 cells [1] is “not directly toxic”.

For the compound `O=P(O)(O)C(O)(Cn1ccnc1)P(=O)(O)O` [zoledronate], the “Direct toxicity” value in the data set with K562 cells [1] was “do exhibit direct toxicity”.

For the compound `C/C(=C\CCP(=O)(OCOC(=O)C(C)(C)C)OCOC(=O)C(C)(C)C)CO` [Compound 2], the “Direct toxicity” value in the data set on K562 cells [1] is “not directly toxic”.

For the compound `O=P(O)(O)C(O)(Cc1cccnc1)P(=O)(O)O` [risedronate], the “Direct toxicity” value in the data set with K562 cells [1] is recorded as “do exhibit direct toxicity”.

Take `COP(=O)(CC/C=C(\C)CO)CP(=O)(OC)OC` (centres unmarked) [Compound 9, Dimethyl (E)-(((5-hydroxy-4-methylpent-3-en-1-yl)(methoxy)phosphoryl)methyl)phosphonate]: in the data set on Vγ9Vδ2 T cells [2], the “Agonist / biological activity” value is on record as “nor is biologically active”. In the data set on Vγ9Vδ2 T cells [2] (PBMC exposed 72 hours, grown 11 days, flow cytometry), this compound had an EC50 of more than 100 µM. In addition, the IC50 in the data set on T cells (toxicity in T cell expansion assay) is more than 100 µM; in the data set on K562 cells [4] (read-out: IC50, direct K562 toxicity, 72 hour treatment), more than 100 µM. Moreover, the “Binding to BTN3A1” value in [3] was “neither binds to the protein”.

With `C/C(=C\CP(=O)(O)OP(=O)(O)O)CO` [C-HMBPP, (E)-4-hydroxy-3-methyl-but-2-enyl phosphonophosphate], in data set [5], the Kd was 1.9 µM.

Turning to `C/C(=C\CCP(=O)([O-])CP(=O)([O-])[O-])CO.[Na+].[Na+].[Na+]` [Compound 10, Sodium (E)-(((5-hydroxy-4-methylpent-3-en-1-yl)oxidophosphoryl)methyl)phosphonate], the EC50 in the data set on Vγ9Vδ2 T cells [2] (Homo sapiens, T-cell) amounted to 26 µM. Moreover, in the data set on T cells (Homo sapiens, T-cell), the half-inhibitory concentration (IC50) was more than 100 µM. Also, the “Binding to BTN3A1” value in [3] was “intermediate affinity”.

With `C/C(=C\COP(=O)(O)OP(=O)(O)O)CO` [HMBPP, (E)-4-hydroxy-3-methyl-but-2-enyl diphosphate, reference compound], the “Stimulation of Vγ9Vδ2 T cell proliferation” value with Vγ9Vδ2 T cells [2] was “strongly stimulated proliferation”. The “TΔS of HMBPP binding” value was -4.54 kcal/mol in [3] (absence of compound 8), -1.1 kcal/mol in data set [3] (setting [9]) and “+28 kJ/mol” in data set [3] (setting [10]). Besides, the “ΔH of HMBPP binding” value in [3] (absence of compound 8) is -12.4 kcal/mol; in data set [3] (setting [9]) it was -9.32 kcal/mol; in data set [3] (setting [10]) it was -1.65 kcal/mol. In addition, the “Direct toxicity” value with K562 cells [4] was “not directly toxic”. Further, the “Hill slope, K562 lysis” value in the data set on K562 cells [6] (four parameter non-linear regression) amounted to 0.69.

Turning to `C/C(=C\CCP(=O)(O)O)CO` [Compound 3], the EC50 in the data set on Vγ9Vδ2 T cells [7] is 4 µM.

For `CC(C)=CCCP(=O)([O-])CP(=O)([O-])[O-].[Na+].[Na+].[Na+]` [Compound 8, Sodium (((4-methylpent-3-en-1-yl)oxidophosphoryl)methyl)phosphonate], the EC50 in the data set with Vγ9Vδ2 T cells [2] (Homo sapiens, T-cell) was more than 100 µM; in the data set on K562 cells [6] (Homo sapiens, K562, 2 h, read-out: EC50, lysis of K562 cells by T cells) it was more than 100 µM. For the same compound, in the data set with T cells (Homo sapiens, T-cell), the half-maximal inhibitory concentration (IC50) was more than 100 µM. In addition, the “Competition with HMBPP binding” value in data set [3] (10x and 100x compound 8) is “capable of disrupting HMBPP binding in a dose-dependent manner”. In data set [3], the “Binding to BTN3A1” value is given as “too low to be measured directly; also recorded: intermediate affinity”.

For the compound `CC(C)=CCCP(=O)(CP(=O)(OCOC(=O)C(C)(C)C)OCOC(=O)C(C)(C)C)OCOC(=O)C(C)(C)C` (centres unmarked) [Compound 11, (((((4-Methylpent-3-en-1-yl)((pivaloyloxy)methoxy)phosphoryl)methyl)phosphoryl)bis(oxy))bis(methylene) bis(2,2-dimethylpropanoate)], the “Agonist / biological activity” value in the data set on Vγ9Vδ2 T cells [2] is “No measurable agonist activity”. In addition, the “Fold difference from HMBPP” value in the data set on Vγ9Vδ2 T cells [2] (EC50 ratio) is reported as less than 0.0000051x. The EC50 in the data set on Vγ9Vδ2 T cells [2] (Homo sapiens, T-cell) is more than 100 µM. The compound further displayed an IC50 in the data set on T cells (Homo sapiens, T-cell) of more than 100 µM. In the data set on K562 cells [4] (72 hour treatment), the “Fold difference from HMBPP, direct K562 toxicity” value is more than 10x and the “Fold difference from salt, direct K562 toxicity” value is more than 10x. In addition, the “Fold difference from salt, lysis” value in the data set with K562 cells [6] is more than 14x.

On to `C/C(=C\CCP(=O)(CP(=O)(OCOC(=O)C(C)(C)C)OCOC(=O)C(C)(C)C)OCOC(=O)C(C)(C)C)CO` (centres unmarked) [Compound 4, (E)-(((((5-Hydroxy-4-methylpent-3-en-1-yl)((pivaloyloxy)methoxy)phosphoryl)methyl)phosphoryl)bis(oxy))bis(methylene) bis(2,2-dimethylpropanoate)], for which the “Stimulation of Vγ9Vδ2 T cell proliferation” value in the data set with Vγ9Vδ2 T cells [2] was “strongly stimulated proliferation”. In addition, the “Fold difference from salt” value in the data set with Vγ9Vδ2 T cells [2] (EC50 ratio) stood at 630 x. Also, the “Fold difference from salt” value in the data set with Vγ9Vδ2 T cells [2] (EC50 ratio, listed as POM3-CC-HMBPP (4)) is given as 630x (versus 10). For the same compound, the EC50 in the data set on Vγ9Vδ2 T cells [2] (Homo sapiens, T-cell) worked out at 0.041 µM. The “Concentrations with toxicity towards the T cells” value in the data set on T cells (Figure 2B) is not below 10 µM. In addition, the “Binding to BTN3A1” value in [3] is on record as “did not bind”. In the data set with K562 cells [4] (72 hour treatment), the “Fold difference from HMBPP, direct K562 toxicity” value is more than 29x and the “Fold difference from salt, direct K562 toxicity” value is recorded as more than 29x. Further, the “Stability in aqueous acetonitrile” value in [8] is “some minor isomerization”. In the data set on K562 cells [6], the “Fold difference in cellular activity between compound 4 and 11” value turned out to be 26 fold; the “Fold difference from salt, lysis” value is 150 x. For the same compound, the “Fold difference from salt, lysis” value in the data set on K562 cells [6] (listed as POM3-CC-HMBPP (4)) stood at 146x.
